Assay results taken from patent publication US12686680B2, “Substituted pyrazolo[1,5-α]pyrimidines as CRF receptor antagonists” (Neurocrine Biosciences, Inc., priority 2019, dated 2026).
Blank lines part the entries; values can stand above or below the molecule they belong to.

What was measured:
CRF1 receptor = target: T1, CRF1 receptor (Homo sapiens, UniProt P34998); assay: CRF1 receptor binding kinetics (association/dissociation rate constants, method of Fleck et al.); conditions: for Ki: Ki=k−1/k1, read-out: Kinetic Ki; for k1: association rate constant; for k^−1: dissociation rate constant
T1 sequence (P34998 24-415): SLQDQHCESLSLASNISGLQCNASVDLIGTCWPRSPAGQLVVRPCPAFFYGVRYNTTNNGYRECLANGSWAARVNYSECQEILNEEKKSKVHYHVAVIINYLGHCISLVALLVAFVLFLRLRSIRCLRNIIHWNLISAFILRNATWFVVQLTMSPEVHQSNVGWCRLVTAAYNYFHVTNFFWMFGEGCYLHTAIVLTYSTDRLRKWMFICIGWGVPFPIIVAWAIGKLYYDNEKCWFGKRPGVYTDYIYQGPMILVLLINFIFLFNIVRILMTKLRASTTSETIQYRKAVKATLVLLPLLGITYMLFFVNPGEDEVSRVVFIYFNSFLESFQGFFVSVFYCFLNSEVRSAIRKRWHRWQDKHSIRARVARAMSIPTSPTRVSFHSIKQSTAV
Description: The association (k1) and dissociation (k−1) rate constants defining binding of the Compounds to the CRF1 receptor were determined by the method described in Fleck et al. (J. Pharmacology and Experimental Therapeutics, 341(2):518-531, 2012) (hereinafter “Fleck et al.” and incorporated by reference in its entirety). As described therein, the activity of a CRF1 receptor antagonist can be expressed as the kinetically derived affinity (Ki) calculated from the association (k1) and dissociation (k−1) rate constants by the following equation: Ki=k−1/k1
The Compounds listed in Table 5 were evaluated according to these procedures, and the kinetic Ki was determined and found to be as follows: […]

[1] = Solubility determination of solid forms of Compound 1 in solvents (Example 52); assay type: physicochemical
Source text: X-Ray Powder diffraction (XRPD), differential scanning calorimetry (DSC), thermal gravimetric analysis (TGA), and UV-Metric/pH-Metric Titration (SiriusT3) were used to characterize Form I of Compound 1. UPLC was used to evaluate solubility of each material in various vehicles.

Ki (CRF1 receptor): < 0.29 nM
k1 (CRF1 receptor): 3.5 ± 1.1 10^6M^−1min^−1
k^−1 (CRF1 receptor): <0.001 min⁻¹
SMILES: CCCN(Cc1ccc(-n2cccn2)cc1)c1cc(C)nc2c(-c3cnc(N(C)C)cc3C)c(C)nn12 [Compound 9, 5-{2,5-dimethyl-7-[propyl({[4-(1H-pyrazol-1-yl)phenyl]methyl})amino]pyrazolo[1,5-a]pyrimidin-3-yl}-N,N,4-trimethylpyridin-2-amine]

Ki (CRF1 receptor): 0.72 nM
k1 (CRF1 receptor): 2.4 +/− 0.2 10^6M^−1min^−1
k^−1 (CRF1 receptor): 0.0017 min⁻¹
SMILES: CCCN(Cc1ccc(-c2csc(NC)n2)cc1)c1cc(C)nc2c(-c3cnc(N(C)C)cc3C)c(C)nn12 [Compound 11, 5-{2,5-dimethyl-7-[({4-[2-(methylamino)-1,3-thiazol-4-yl]phenyl}methyl)(propyl)amino]pyrazolo[1,5-a]pyrimidin-3-yl}-N,N,4-trimethylpyridin-2-amine]

Ki (CRF1 receptor): < 0.12 nM
k1 (CRF1 receptor): 9.1 ± 4.1 10^6M^−1min^−1
k^−1 (CRF1 receptor): <0.001 min⁻¹
SMILES: CCCN(Cc1ccc(-c2ccccc2)cc1)c1cc(C)nc2c(-c3cnc(N(C)C)cc3C)c(C)nn12 [Compound 8, 5-(2,5-dimethyl-7-{[(4-phenylphenyl)methyl](propyl)amino}pyrazolo[1,5-a]pyrimidin-3-yl)-N,N,4-trimethylpyridin-2-amine]

Measured pH ([1]; 50 mM BB pH 9): pH 3.2
Solubility ([1]; 50 mM BB pH 9): 0.2 mg/mL FB
Measured pH ([1]; 50 mM CB pH 3): pH 3.4
Solubility ([1]; 50 mM CB pH 3): 1.0 mg/mL FB
Measured pH ([1]; 50 mM CB pH 4): pH 4.0
Solubility ([1]; 50 mM CB pH 4): 0.1 mg/mL FB
Measured pH ([1]; 50 mM CB pH 6): pH 5.1
Solubility ([1]; 50 mM CB pH 6): 0 mg/mL FB
Measured pH ([1]; 50 mM PB pH 2): pH 3.0
Solubility ([1]; 50 mM PB pH 2): 4.7 mg/mL FB
Measured pH ([1]; 50 mM PB pH 8): pH 6.7
Solubility ([1]; 50 mM PB pH 8): 0 mg/mL FB
Measured pH ([1]; 100% H2O): pH 3.5
Solubility ([1]; 100% H2O): 0.8 mg/mL FB
Solubility ([1]; ACN): 3.1 mg/mL FB
Solubility ([1]; Acetone): 1.0 mg/mL FB
Solubility ([1]; DMSO): >2.1 mg/mL FB
Solubility ([1]; EtOAc): 0.6 mg/mL FB
Solubility ([1]; EtOH): 16.6 mg/mL FB
Solubility ([1]; IPA): 2.3 mg/mL FB
Solubility ([1]; MeOH): 134.4 mg/mL FB
SMILES: CCCN(Cc1ccc(-c2csc(N(C)C)n2)cc1)c1cc(C)nc2c(-c3cnc(N(C)C)cc3C)c(C)nn12 [Compound 1-5 (Mesylate), 5-{7-[({4-[2-(dimethylamino)-1,3-thiazol-4-yl]phenyl}methyl)(propyl)amino]-2,5-dimethylpyrazolo[1,5-a]pyrimidin-3-yl}-N,N,4-trimethylpyridin-2-amine]
